Measured values as given in PMC10330135 (Chemistry (Weinheim an der Bergstrasse, Germany), 2023).

Tests used:
Format in all cases: biochemical
PtmJ = biological target: T1, PtmJ (Streptomyces pactum, UniProt A8R0J5); assay: enzymatic glycosylation
T1 sequence (A8R0J5 1-318): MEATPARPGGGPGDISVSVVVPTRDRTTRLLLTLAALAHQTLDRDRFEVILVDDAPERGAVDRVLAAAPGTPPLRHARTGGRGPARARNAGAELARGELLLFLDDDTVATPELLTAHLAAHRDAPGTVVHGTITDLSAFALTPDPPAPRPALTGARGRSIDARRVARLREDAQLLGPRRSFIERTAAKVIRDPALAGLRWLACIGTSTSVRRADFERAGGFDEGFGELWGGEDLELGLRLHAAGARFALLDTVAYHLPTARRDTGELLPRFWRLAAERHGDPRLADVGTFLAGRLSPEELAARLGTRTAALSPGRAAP

PtmN = biological target: T2, PtmN (Streptomyces pactum, UniProt A8R0J9); assay: mass spectrometry of product; settings: NAD+; cofactor recycling as for GlcNAc-3AAP
T2 sequence (A8R0J9 1-351): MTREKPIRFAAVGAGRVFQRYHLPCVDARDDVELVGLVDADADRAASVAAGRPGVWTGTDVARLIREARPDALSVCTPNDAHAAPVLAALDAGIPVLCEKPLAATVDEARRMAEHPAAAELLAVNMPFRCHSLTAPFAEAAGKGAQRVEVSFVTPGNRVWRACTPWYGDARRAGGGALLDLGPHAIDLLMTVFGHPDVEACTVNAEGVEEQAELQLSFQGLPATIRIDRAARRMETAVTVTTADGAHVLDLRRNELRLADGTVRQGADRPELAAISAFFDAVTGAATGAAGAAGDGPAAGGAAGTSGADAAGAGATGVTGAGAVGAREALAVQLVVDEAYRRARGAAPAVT

PtmG = biological target: T3, PtmG (Streptomyces pactum, UniProt A8R0J2); assay: mass spectrometry of substrate consumption; settings: formed in situ by PtmN, PtmA and PtmB; 10 h with PtmG
T3 sequence (A8R0J2 1-378): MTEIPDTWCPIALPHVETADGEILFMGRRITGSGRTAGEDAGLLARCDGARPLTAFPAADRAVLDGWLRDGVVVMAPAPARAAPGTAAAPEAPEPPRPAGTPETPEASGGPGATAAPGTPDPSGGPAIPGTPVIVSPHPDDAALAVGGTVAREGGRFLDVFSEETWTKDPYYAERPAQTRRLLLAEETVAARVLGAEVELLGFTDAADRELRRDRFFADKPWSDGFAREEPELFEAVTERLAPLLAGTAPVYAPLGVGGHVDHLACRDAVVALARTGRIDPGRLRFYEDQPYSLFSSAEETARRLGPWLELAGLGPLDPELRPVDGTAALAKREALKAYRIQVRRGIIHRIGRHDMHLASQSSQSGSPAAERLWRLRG

CC(=O)NCCSC(=O)c1cccc(N)c1 [3ABA-SNAC]
enzymatic glycosylation; product used in the next reactions (PtmJ): The 3ABA-SNAC was first glycosylated with the glycosyltransferase PtmJ

CC(=O)NCCSC(=O)c1cccc(N[C@@H]2O[C@H](CO)[C@@H](O)[C@H](O)[C@H]2NC(C)=O)c1 [compound 15, GlcNAc-3ABA-SNAC]
mass spectrometry of product (PtmN): reaction of GlcNAc-3ABA-SNAC with PtmN showed an oxidation product

CC(=O)N[C@@H]1[C@@H](NC(N)=O)[C@H](O)[C@@H](CO)O[C@H]1Nc1cccc(C(C)=O)c1 [compound 20, N-carbamoylated GlcNAc-3AAP]
mass spectrometry of substrate consumption (PtmG): after incubation with PtmG, the carbamoylated GlcNAc-3AAP was partially consumed
